For assay [1], the system named is E. coli SQ171 U2609C. The assay can be described thus: Antibiotic susceptibility (growth) assay, E. coli SQ171 U2609C. It counts as cell-based, Escherichia coli. The note with it: relative to no compound, mean of 3 replicas. From the text: (§1) In addition, we also used a strain with a U2609C–A752G double mutation, which would be predicted to restore Watson–Crick base pairing, and with three hydrogen bonds could possibly make breaking the base pair harder than with the canonical two hydrogen bonds for the A–U base pair. As a control, we also tested Dro that lacks the α-D-GalNAc modification, which we predict (assuming that Dro binds analogously to Dro1) should not interact with U2609 and, therefore, not be influenced by the conformation of the U2609–A752 base pair.
(§2) Strains E. coli Keio wild-type and E. coli Keio ΔsbmA used from the Keio knockout collection (Horizon, https://horizondiscovery.com). Wild-type E. coli SQ110 (ΔrrnGADBHC(ptRNA67))[47] and SQ171 (ΔrrnGADEHBC(pKK3535, ptRNA67))[47] strains and related mutants E. coli SQ110 A2059G and E. coli SQ171 A2503G were obtained from the previous Api137 study. E. coli strains SQ171 bearing A752G, U2609C and A752G:U2609C mutations[43] and E. coli SQ171 U2609G[48] were generated previously.
(§3) The susceptibility of E. coli strains to compounds was evaluated by monitoring the bacterial growth in presence of increasing concentrations of the compound of interest. In brief, bacteria were inoculated in a total volume of 100 μl of medium contained in a well of a 96-well microplate (round bottom, with cap, sterile; Sarstedt). The medium used was either LB, as rich medium, or ATCC medium (778 Davis and Mingioli glucose minimal medium), as minimal medium. Before inoculation, bacteria were grown up to exponential phase and then inoculated into the culture mix, containing selective antibiotic if necessary, with an initial optical density at 600 nm (OD600) of 0.05. Values measured from wells containing just the medium were used as a blank. The growth in each well was monitored by measuring the OD600 every 10 minutes for a total of 20 hours at 37 °C with shaking using a plate reader (Tecan Infinite 200 PRO). The inhibition resulting from a compound’s concentration was evaluated by normalizing the OD600 at t = 12 hours (corresponding to the end of the log phase) from the treated culture to the untreated one. For each compound, the concentrations tested were 5 μM, 10 μM and 30 μM. Each single titration assay was done in triplicate with individually prepared culture mixes. For each concentration, the standard deviation was calculated, taking into account each single replica and its specific technical error from the plate reader.

The subject of assay [2] is E. coli SQ171 A752G. The assay can be described thus: Antibiotic susceptibility (growth) assay, E. coli SQ171 A752G. It counts as cell-based, Escherichia coli. The note with it: relative to no compound, mean of 3 replicas.
Description: as §1, §2, §3

In assay [3] the test system is E. coli SQ171 wt. Put plainly: Antibiotic susceptibility (growth) assay, E. coli SQ171 wt. Format: cell-based, Escherichia coli. The note with it: relative to no compound, mean of 3 replicas.
Description: as §2, §3

Assay [4] relates to in vitro translation, E. coli PURExpress system, firefly luciferase (Fluc) mRNA. The assay can be described thus: In vitro translation assay with Fluc reporter. It counts as biochemical, Escherichia coli. The settings on record: Fluc mRNA, luminescence; for maximum inhibition of in vitro translation: at the highest concentration tested of 150 μM. As to the method:
To investigate this, we compared the effect of increasing concentrations (0–150 μM) of modified Dro1 and Dro2 with unmodified Dro, Dro-3P and Api137 using a cell-free in vitro translation system and firefly luciferase (Fluc) mRNA as a template (Fig. 1e), as we have used previously for assessing the activity of other PrAMPs[4],[6],[8],[9],[32],[33].
The in vitro translation assay was carried out as described previously[4],[8] using the E. coli PURExpress system (New England Biolabs (NEB), E6800S). Then, 1 µl of antibiotic solution was added to 5 µl of PURExpress reaction mix. Each reaction contained 10 ng μl^−1 of mRNA encoding the Fluc, which was in vitro transcribed from a pIVEX-2.3MCS vector containing the Fluc gene using T7 polymerase (Thermo Fisher Scientific). The reaction mix was incubated for 30 minutes at 32 °C while shaking (600 r.p.m.). Reactions were stopped with 5 µl of kanamycin (50 mg ml^−1) and transferred into a 96-well microplate (Greiner Lumitrac, non-binding, white, chimney). Next, 40 µl of luciferase assay substrate solution (Promega, E1501) was added, and luminescence was measured using a plate reader (Tecan Infinite 200 PRO). Nuclease-free water was added instead of antibiotic as control. Absolute luminescence values were normalized using reactions without antibiotic. All assays were done as triplicates with individually prepared reaction mix.

In assay [5] the test system is E. coli Keio wt (BW25113). Put plainly: Antibiotic susceptibility (growth) assay, E. coli Keio wild-type. It counts as cell-based, Escherichia coli. The settings on record: 30 μM peptide; for Average of normalized growth: average of three biological replicates; for growth inhibition in rich medium: rich (LB) medium.
Description: Many PrAMPs use the SbmA transporter to pass through the E. coli inner membrane[4],[10],[31]; however, whether drosocin also uses SbmA remains, to our knowledge, unknown. To address this, we monitored the effect of the presence of diverse drosocin peptides (Fig. 1a,b and Supplementary Fig. 1a) on the growth of the wild-type E. coli strain BW25113 containing SbmA or lacking SbmA (ΔsbmA) (Fig. 1c,d). We compared unmodified drosocin (Dro) with various modified forms (Fig. 1a,b). The modified forms included the naturally occurring Dro1 and Dro2 that carry either a monosaccharide (α-D-GalNAc) or disaccharide (β-D-Gal(1→3)-α-D-GalNAc) attached to Thr11, respectively (Fig. 1b). In addition, we examined the previously reported[23],[24] drosocin derivatives bearing β-D-Maltosyl (Dro3), α-D-GlcNAc (Dro4), β-D-Gal (Dro5), β-D-Glc (Dro6), β-D-Lactosyl (Dro7) and β-D-Cellobiosyl (Dro8) modifications on Thr11 (Fig. 1a,b and Supplementary Fig. 1a). Finally, we also included in our analysis the synthetic unmodified drosocin derivative with proline substitutions at positions 7, 11 and 12 (Dro-3P) (Fig. 1a), which was previously reported to have similar antimicrobial activity to the monosaccharide form of drosocin[25]. Growth was monitored in both rich (LB) and minimal medium in the presence of 30 μM of each peptide and normalized with the growth in the absence of the compounds (Methods). […] We also observed no inhibition for Dro2 nor for any of the β-linked disaccharides (Dro3, Dro6 or Dro7). […] By contrast, all drosocin peptides inhibited growth of the E. coli BW25113 strain in minimal medium, albeit to different extents (Fig. 1d).
as §2, §3

For assay [6], the system named is E. coli SQ110 A2059G. Put plainly: Antibiotic susceptibility (growth) assay, E. coli SQ110 A2059G. It counts as cell-based, Escherichia coli. The settings on record: A2059G mutation; LB medium; 5, 10, 30 μM.
Description: as §2
(§4) The susceptibility of E. coli strains to compounds was evaluated by monitoring the bacterial growth in presence of increasing concentrations of the compound of interest. […] Values measured from wells containing just the medium were used as a blank. The growth in each well was monitored by measuring the OD600 every 10 minutes for a total of 20 hours at 37 °C with shaking using a plate reader (Tecan Infinite 200 PRO). The inhibition resulting from a compound’s concentration was evaluated by normalizing the OD600 at t = 12 hours (corresponding to the end of the log phase) from the treated culture to the untreated one. […] For each concentration, the standard deviation was calculated, taking into account each single replica and its specific technical error from the plate reader.

Assay [7] relates to E. coli SQ171 A2503G. The assay can be described thus: Antibiotic susceptibility (growth) assay, E. coli SQ171 A2503G. The settings on record: A2503G mutation; LB medium; 5, 10, 30 μM. Format: cell-based, Escherichia coli.
Description: as §2, §4

The source of these data is publication PMC10449632, “Structural basis for translation inhibition by the glycosylated drosocin peptide” (Nature Chemical Biology, 2023).

No end group written: not given here. *: point of attachment. αGalNAc = CC(=O)N[C@@H]1[C@@H](O)[C@@H](O)[C@@H](CO)O[C@@H]1*

For “Dro1: naturally occurring drosocin carrying monosaccharide α-D-GalNAc attached to Thr11 (GKPRPYSPRPT(αGalNAc)SHPRPIRV; UniProt P36193 22-40, looked up)”, the “OD600 at t = 12 h, Normalized, Average” value in assay [1] (5 μM) was 40%; in assay [1] (30 μM), 5%; in assay [2] (5 μM) it was 70%; in assay [2] (30 μM), 7%; in assay [3] (5 μM) it was 93%; in assay [3] (30 μM) it was 11%. Further, the IC50 in assay [4] (0–150 μM peptide, 30 minutes at 32 °C, triplicate, read-out: half maximal inhibitory concentration (IC50), in vitro translation) is 78 ± 13 µM. Besides, the “maximum inhibition of in vitro translation” value in assay [4] is given as 60%. In addition, the “Average of normalized growth” value was determined as 38% in assay [5] (LB rich medium) and 6% in assay [5] (Minimal medium). For the same substance, the “growth inhibition in minimal medium” value in assay [5] was “highest inhibition”. In addition, in assay [5], the “growth inhibition in rich medium” value is reported as “growth inhibition”. The “resistance of mutant compared to the wild-type strain” value in assay [6] and in assay [7] was “more resistant” each time.

On to “Dro: unmodified drosocin, 19 amino acid proline-rich antimicrobial peptide lacking O-glycosylation (GKPRPYSPRPTSHPRPIRV; Drosocin; UniProt P36193 22-40, looked up)”, for which the “OD600 at t = 12 h, Normalized, Average” value is recorded as 92% in assay [1] (5 μM); 71% in assay [1] (30 μM); 84% in assay [2] (5 μM); 59% in assay [2] (30 μM); 86% in assay [3] (5 μM); 72% in assay [3] (30 μM). Further, the “maximum inhibition of in vitro translation” value in assay [4] is on record as 20%. Moreover, the results for the “Average of normalized growth” value in assay [5] (LB rich medium) and in assay [5] (Minimal medium) were 98% and 87%, respectively. In addition, the “growth inhibition in minimal medium” value in assay [5] is “lowest”. The “growth inhibition in rich medium” value in assay [5] is “inactive”.
